# Measurements taken from PMC10313921, “A living ex vivo platform for functional, personalized brain cancer diagnosis” (Cell Reports Medicine, 2023).
# Assays:
# Assay type in all cases: cell-based, human
# [1] = system: PGBM patient tumor tissue (pediatric GBM); experiment: Drug screening of uncultured patient tumor tissue PGBM on OBSCs; settings: Homo sapiens, PGBM on OBSCs
# Description: (§1) Tumor cells were seeded onto OBSCs 2h after slicing as described above. One day after tumor seeding, six concentrations of each drug were diluted in the media underneath each culture insert, or XRad was applied using an X-Rad 320 Precision X-ray machine (n = 4 tumor foci per concentration; n ≥ 24 tumor foci per drug per cell line). Three days after treatment, the bioluminescence of live tumor cells was measured using an AMI optical imager (Spectral Instruments) and dose-response curves were generated. Tumor survival was normalized to day one tumor fluorescence and compared to an untreated control group.
# (§2) To engraft onto OBSCs, the cryopreserved/thawed or fresh brain tumor tissue was filtered through a 100 μm cell strainer. Each 50 mg of tissue was transfected with 1mL mcherry-FLuc Lentivirus at 1.5e7 vg/ml with 1μL polybrene for 4h at 37°C. After incubation, the brain tumor tissue was washed with PBS three times to remove the residual virus and reconstituted in PBS with a final volume of 150 μL. Then the tissue solution was engrafted atop OBSCs at ∼0.5 mg tissue in 3 μL of PBS on each hemisphere of the slice. The OBSC engrafted with patient tumor tissue was incubated at 37°C with 5% CO2 and 95% humidity. The BSM was changed after 24h and subsequently every 3 days. Tumor treatment studies were executed as described above for tumor lines. The viability of the patient tissue was measured by an AMI optical imaging system with the addition of 1.5 mg/mL luciferin underneath the culture insert.
# (§3) Several weighted parameters were factored into an overall drug sensitivity score.
# (§4) For DSS parameters 1–6, therapeutic windows were calculated by comparing OBSC toxicity and tumor response at the doses where tumor kill passed through the DSS parameter (Table S1 and S3). For DSS parameter 7, the therapeutic window was calculated by comparing the slopes through the tumor EC50 and the OBSC tox EC50. For DSS parameter 8, the therapeutic window was calculated by comparing the areas under tumor kill and OBSC tox curves. Normalized therapeutic window ratios for DSS parameters 1–8 within each drug-tumor-OBSC interaction were calculated in the following manner: within each window, values ranged from +1 to −1, where values approaching +1 signify increasing tumor kill relative to normal tissue toxicity, and values approaching −1 indicate agents where tumors remained highly viable while toxicity to the normal OBSC tissue was elevated. DSS parameters 9–11 were determined based on the behavior of the tumor in response to the drug, as defined above.
# (§5) All individually weighed parameters were added together to generate the DSS. Overall DSS from 0 to 100 signify increasing efficacy in tumor kill relative to OBSC toxicity, while scores from 0 to −100 describe scenarios in which tumors thrive more effectively than OBSCs for a given treatment. Dose-response values were calculated via linear interpolation of raw data, not from best-fit curve equations.
# [2] = system: U373KO (RAD18 knockout of U373WT via CRISPR); experiment: Drug screening of U373KO tumor foci on OBSCs; settings: U373 KO on OBSCs
# Description: (§6) Tumor cells (0.17 μL, 25,000 cells) were seeded onto OBSCs 2h after slicing, with one tumor seeded in the center of each hemisphere for a total of two tumor foci per OBSC. BSM was changed 24h after slicing. Fluorescence images were taken 0 h, 24 h, and 96 h post-seeding for normalization of tumor size. Bioluminescence readouts were also taken at 0 h, 24 h, and 96 h post seeding for assessment of cell viability. Luciferin was added underneath the culture insert and allowed to incubate for 10 min before bioluminescence measurement on an AMI optical imaging system.
# as §1, §3, §4, §5
# [3] = system: MS21 (low-passage patient-derived GBM line); experiment: Drug screening of MS21 tumor foci on OBSCs
# Description: as §6, §1, §3, §4, §5
# [4] = system: MB231Br (breast cancer metastasis to brain); experiment: Drug screening of MB231Br tumor foci on OBSCs
# [5] = system: GBM8 (high-passage patient-derived GBM line); experiment: Drug screening of GBM8 tumor foci on OBSCs
# Description: as §6, §1, §3, §4, §5
# [6] = system: U373WT (wild-type established GBM line); experiment: Drug screening of U373WT tumor foci on OBSCs; settings: U373 WT on OBSCs
# Description: as §6, §1, §3, §4, §5
# [7] = system: PIS patient tumor tissue (intracranial sarcoma); experiment: Drug screening of uncultured patient tumor tissue PIS on OBSCs; settings: Homo sapiens; PIS on OBSCs; dose required to kill 90% of the tumor
# Description: as §1, §2, §3, §4, §5
# [8] = system: LN229 (established GBM line); experiment: Drug screening of LN229 tumor foci on OBSCs
# Description: as §6, §1, §3, §4, §5
# [9] = system: PDIPG (low-passage pediatric patient-derived line); experiment: Drug screening of PDIPG tumor foci on OBSCs
# Description: as §6, §1, §3, §4, §5
# [10] = system: PGBM-R patient tumor tissue (recurrent tumor from same patient as PGBM); experiment: Drug screening of uncultured patient tumor tissue PGBM-R on OBSCs; settings: PGBM-R relative to PGBM
# Description: as §1, §2, §3, §4, §5
# [11] = Homo sapiens, U373 MG, dose required to kill 50% of the tumor
# [12] = Homo sapiens, U373 MG, dose required to kill 90% of the tumor
# [13] = Homo sapiens, U373 MG, dosed day 1, survival via bioluminescence day 4, linear interpolation
# [14] = area under the dose-response curve, trapezoidal rule
# [15] = dose required to kill 10% of the tumor
# [16] = dose required to kill 25% of the tumor
# [17] = dose required to kill 75% of the tumor
smiles,measurement,setting,value
Nc1ncn([C@@H]2O[C@H](CO)[C@@H](O)[C@H]2O)c(=O)n1 [Azacitidine],EC50,[1]; dose required to kill 50% of the tumor,> 100 µM
same,EC90,[1]; dose required to kill 90% of the tumor,> 10 µM
same,EC50,[2]; [11],158 µM
same,EC90,[2]; [12],> 10 µM
same,IC50,[2]; [13],158 µM
same,Killing at highest dose,[2],8.30E-01 fraction of tumor population killed
same,AUC,[2]; [14],3.39E+02
same,EC10,[2]; [15],23.8 µM
same,EC25,[2]; [16],44.5 µM
same,EC75,[2]; [17],647 µM
same,Slope,[2]; slope through the EC50,-1.73E-03
same,EC50,[3]; Homo sapiens,821 µM
same,EC90,[3]; Homo sapiens,> 10 µM
same,IC50,[3]; Homo sapiens,821 µM
same,Killing at highest dose,[3]; MS21 on OBSCs,5.50E-01 fraction of tumor population killed
same,AUC,"[3]; MS21 on OBSCs, area under the dose-response curve, trapezoidal rule",6.06E+02
same,EC10,"[3]; MS21 on OBSCs, dose required to kill 10% of the tumor",31.5 µM
same,EC25,"[3]; MS21 on OBSCs, dose required to kill 25% of the tumor",90.9 µM
same,Slope,"[3]; MS21 on OBSCs, slope through the EC50",-2.80E-04
same,EC50,"[4]; Homo sapiens, MB231BR on OBSCs, dose required to kill 50% of the tumor",208 µM
same,EC90,"[4]; Homo sapiens, MB231BR on OBSCs, dose required to kill 90% of the tumor",906 µM
same,IC50,"[4]; Homo sapiens, MB231Br on OBSCs, dosed day 1, survival via bioluminescence day 4, linear interpolation",208 µM
same,Killing at highest dose,[4]; MB231BR on OBSCs,9.50E-01 fraction of tumor population killed
same,AUC,"[4]; MB231BR on OBSCs, area under the dose-response curve, trapezoidal rule",3.36E+02
same,EC10,"[4]; MB231BR on OBSCs, dose required to kill 10% of the tumor",4.76 µM
same,EC25,"[4]; MB231BR on OBSCs, dose required to kill 25% of the tumor",18.9 µM
same,EC75,"[4]; MB231BR on OBSCs, dose required to kill 75% of the tumor",625 µM
same,Slope,"[4]; MB231BR on OBSCs, slope through the EC50",-1.20E-03
same,Killing at highest dose,[5]; GBM8 on OBSCs,1.00E+00 fraction of tumor population killed
same,AUC,"[5]; GBM8 on OBSCs, area under the dose-response curve, trapezoidal rule",4.08E+01
same,EC10,"[5]; GBM8 on OBSCs, dose required to kill 10% of the tumor",8.33 µM
same,EC25,"[5]; GBM8 on OBSCs, dose required to kill 25% of the tumor",18.1 µM
same,EC75,"[5]; GBM8 on OBSCs, dose required to kill 75% of the tumor",49.4 µM
same,Slope,"[5]; GBM8 on OBSCs, slope through the EC50",-1.60E-02
same,EC50,[5]; Homo sapiens,33.8 µM
same,EC90,[5]; Homo sapiens,83.3 µM
same,IC50,[5]; Homo sapiens,34 µM
same,EC50,[6]; [11],800 µM
same,EC90,[6]; [12],> 10 µM
same,IC50,[6]; [13],800 µM
same,Killing at highest dose,[6],5.40E-01 fraction of tumor population killed
same,AUC,[6]; [14],5.88E+02
same,EC10,[6]; [15],61.1 µM
same,EC25,[6]; [16],81.9 µM
same,Slope,[6]; slope through the EC50,-2.00E-04
same,EC90,[7],> 10 µM
same,Killing at highest dose,[8],8.60E-01 fraction of tumor population killed
same,EC50,"[8]; Homo sapiens, LN-229, dose required to kill 50% of the tumor",400 µM
same,EC90,"[8]; Homo sapiens, LN-229, dose required to kill 90% of the tumor",> 10 µM
same,IC50,"[8]; Homo sapiens, LN-229, dosed day 1, survival via bioluminescence day 4, linear interpolation",400 µM
same,AUC,[8]; [14],4.51E+02
same,EC10,[8]; [15],28.9 µM
same,EC25,[8]; [16],45.6 µM
same,EC75,[8]; [17],817 µM
same,Slope,[8]; slope through the EC50,-6.00E-04
same,EC50,[9]; Homo sapiens,447 µM
same,EC90,[9]; Homo sapiens,> 10 µM
same,IC50,[9]; Homo sapiens,447 µM
same,Killing at highest dose,[9]; PDIPG on OBSCs,6.40E-01 fraction of tumor population killed
same,AUC,"[9]; PDIPG on OBSCs, area under the dose-response curve, trapezoidal rule",5.03E+02
same,EC10,"[9]; PDIPG on OBSCs, dose required to kill 10% of the tumor",3.7 µM
same,EC25,"[9]; PDIPG on OBSCs, dose required to kill 25% of the tumor",9.26 µM
same,Slope,"[9]; PDIPG on OBSCs, slope through the EC50",-2.53E-04
same,increase of DSS in the recurrent tumor,[10],96 points
